Values of other authors, collected in patent US8835508B2, “Stable aqueous solution containing sodium pyruvate, and the preparation and use thereof” (priority 2006, dated 2014).
Like-named read-outs stand apart in the source and are kept apart here.

Details: for content of dimer: 3.0 M (3,000 mM) pure NaPyr in water, room temperature

- content of dimer (pH 7.3, after 24 hours): 9.1%
- content of dimer (pH 7.3, after 48 hours): 18.4%
- stability of aqueous solution containing NaPyr (22° C., pH >6.0, HPLC and NMR): unstable
Structure (SMILES): CC(=O)C(=O)[O-].[Na+] [NaPyr, sodium pyruvate]
